The values below come from article PMC8710297, “Identification of potent SENP1 inhibitors that inactivate SENP1/JAK2/STAT signaling pathway and overcome platinum drug resistance in ovarian cancer” (Clinical and Translational Medicine, 2021).

In experiment [1] the test system is IGROV1 CR cells. The experiment is described as follows: Drug synergy screening: SRB proliferation assay with 2 μM cisplatin. It is filed as cell-based. Here is the method:
(A) Collection of Momordin Ic (Mc) natural compound analogues. […] Cell proliferation was determined by the sulforhodamine B (SRB) assay. […] IGROV1 CR cells were incubated with Mc at indicated concentrations for 48 h and then harvested for Western blot for indicated proteins. […] IGROV1 CR cells were incubated with UA and then treated as in C. […] Intensity of SUMOylated JAK2 was measured by Quantity One software. […] Recombinant His‐JAK2 was SUMOylated by in vitro SUMOylation assay, and then SUMOylated JAK2 proteins were incubated with or without recombinant GST‐SENP1 together with Mc for 3 h. […] In vitro assay was performed as in (F). […]
(In general: Sulforhodamine B stains cellular protein and so reports cell mass.)

In experiment [2] the test system is STAT3. In words: pSTAT3 levels in IGROV1 CR cells (immunoblotting). It is filed as cell-based. The note with it: Homo sapiens, IGROV-1, 48 h, read-out: IC50 (pSTAT3 levels, Figure 3C). Here is the method: FIGURE 3 Identification of UAMMC9 from UA derivatives. (A) Synthesis of UA derivatives. Reagents and conditions: (i) Ac2O, DMAP, Pyridine, r.t.; (ii) Oxalyl chloride, CH2Cl2, r.t., overnight; (iii) amines, TEA, r.t., 0.5–4 h; (iv) NaOH a.q., MeOH/THF, r.t.; (v) amines, MeOH, reflux; (vi) K2CO3, DMF, 60°C. The detail of synthesis was included in supplemental materials. (B) UAMMC9 inhibits Sentrin‐specific protease 1 (SENP1) activity in cells. (C) IGROV1 CR cells treated with indicated UAMMC9 for 48 h. Cells were then harvested and lysates were resolved on sodium dodecyl sulphate‐polyacrylamide gel electrophoresis, followed by immunoblotting for indicated proteins. (D) Cellular thermal shift assay to examine the interaction of UAMMC9 with SENP1. IGROV1 CR cells were incubated with DMSO or UAMMC9 for 4 h before treatment as in Figure 2A. (E) In vitro thermal shift assay to analyze the interactions of UAMMC9 with purified GST‐SENP1(C603A). Stability of SENP1(C603A) was analyzed by using Western blot against SENP1 antibody. […]
Figue S2. […] (B) Quantification of SENP1 in h ib iti o n by UAMMC9 in vitro and in vivo shown in A and Figure 3B . […] SE N P 1 stability wa s analyzed by using We s t e r n blot aga inst SE NP 1 antibody.
(D) Quantification of no n‐denatured SENP1 frac ti on sh own in C. (E) Quantification of th e levels of pSTAT3 as shown in Fi g u e 3C. […]
For orientation: A western blot detects proteins with antibodies after separation by electrophoresis.

For orientation: IC50 means the concentration that gives 50% inhibition. With `C[C@H]1[C@H](C)CC[C@]2(C(=O)NCC(=O)N(C)CCO)CC[C@]3(C)C(=CC[C@@H]4[C@@]5(C)CC[C@H](O)C(C)(C)[C@@H]5CC[C@]43C)[C@H]12` [UAMMC9], the “IC50 of UA derivatives to inhibit resistant cells together with cisplatin (in words)” value in experiment [1] was “lower IC50”. In addition, the IC50 in experiment [2] turned out to be 0.388 µM.
